Experimental findings from patent US20100280010A1, “CHEMICAL COMPOUNDS” (priority 2006, published 2010) are described below.

This assay has as its system HIV-1 (Ba-L or IIIB) infection of HOS cell line (expressing hCXCR4/hCCR5/hCD4/pHIV-LTR-luciferase). Description: HOS HIV-1 Infectivity Assay. It counts as cell-based. Particulars: Human immunodeficiency virus 1, HOS, virus strain not given, read-out: Activity Level. The protocol: Compounds were profiled against two HIV-1 viruses, the M-tropic (CCR5 utilizing) Ba-L strain and the T-tropic (CXCR4 utilizing) IIIB strain. Ba-L was propagated in either peripheral blood lymphocytes or SupT1/CCR5+/CXCR4+ cells. IIIB was propagated in peripheral blood lymphocytes. Compounds were tested for their ability to block infection of the HOS cell line (expressing hCXCR4/hCCR5/hCD4/pHIV-LTR-luciferase) by either HIV-1 Ba-L or HIV-1 IIIB. Compound cytotoxicity was also examined in the absence of virus addition.
HOS cells (expressing hCXCR4/hCCR5/hCD4/pHIV-LTR-luciferase) were harvested and diluted in Dulbeccos modified Eagles media supplemented with 2% FCS to a concentration of 120,000 cells/ml. The cells were plated into 96-well plates (50 μl per well) and the plates were placed in a tissue culture incubator ([…]; 5% CO2195% air) for a period of 24 h.
Subsequently, 50 μl of the desired drug solution (2 times the final concentration) was added to each well and the plates were returned to the tissue culture incubator (370° C.; 5% CO2/95% air) for 1 h. Following this incubation, 60 μl of diluted virus (4 times the final concentration) was added to 60 μl of 2× the final desired concentration of the compound and 100 μl of this compound/virus mix was added to each well (approximately 2 million RLU per well of virus). The plates were returned to the tissue culture incubator (370° C.; 5% CO2/95% air) and were incubated for a further 96 h.
Following this incubation the endpoint for the virally infected cultures was quantified following addition of Steady-Glo Luciferase assay system reagent (Promega, Madison, Wis.). Cell viability or non-infected cultures was measured using a CellTiter-Glo luminescent cell viability assay system (Promega, Madison, Wis.). All luminescent readouts are performed on a Topcount luminescence detector (Packard, Meridien, Conn.).
As for `CN(C)[C@@H]1CCN(c2cccc3nc(CN(C)[C@H]4CCCc5cccnc54)c(C(N)=O)n23)C1` [Example 39, 5-[(3R)-3-(Dimethylamino)-1-pyrrolidinyl]-2-({methyl[(8S)-5,6,7,8-tetrahydro-8-quinolinyl]amino}methyl)imidazo[1,2-a]pyridine-3-carboxamide], the IC50 is below 100 nM.

`CCN(Cc1nc2cccc(N3CC[C@@H](N(C)C)C3)n2c1C#N)[C@H]1CCCc2cccnc21` [Example 42, 5-[(3R)-3-(Dimethylamino)-1-pyrrolidinyl]-2-({ethyl[(8S)-5,6,7,8-tetrahydro-8-quinolinyl]amino}methyl)imidazo[1,2-a]pyridine-3-carbonitrile]: the IC50 was below 100 nM. With `CCN(Cc1nc2cccc(N3CC[C@@H](N(C)C)C3)n2c1C(N)=O)[C@H]1CCCc2cccnc21` [Example 43, 5-[(3R)-3-(Dimethylamino)-1-pyrrolidinyl]-2-({ethyl[(8S)-5,6,7,8-tetrahydro-8-quinolinyl]amino}methyl)imidazo[1,2-d]pyridine-3-carboxamide], the IC50 is below 100 nM. With `CCCN(Cc1nc2cccc(N3CC[C@@H](N(C)C)C3)n2c1C#N)[C@H]1CCCc2cccnc21` [Example 46, 5-[(3R)-3-(Dimethylamino)-1-pyrrolidinyl]-2-({propyl[(8S)-5,6,7,8-tetrahydro-8-quinolinyl]amino}methyl)imidazo[1,2-a]pyridine-3-carbonitrile] the figure was below 100 nM; with `CCCN(Cc1nc2cccc(N3CC[C@@H](N(C)C)C3)n2c1C(N)=O)[C@H]1CCCc2cccnc21` [Example 47, 5-[(3R)-3-(Dimethylamino)-1-pyrrolidinyl]-2-({propyl[(8S)-5,6,7,8-tetrahydro-8-quinolinyl]amino}methyl)imidazo[1,2-a]pyridine-3-carboxamide], below 100 nM. In the case of `CC(C)N(Cc1nc2cccc(N3CC[C@@H](N(C)C)C3)n2c1C#N)[C@H]1CCCc2cccnc21` [Example 50, 5-[(3R)-3-(Dimethylamino)-1-pyrrolidinyl]-2-({(1-methylethyl)[(8S)-5,6,7,8-tetrahydro-8-quinolinyl]amino}methyl)imidazo[1,2-a]pyridine-3-carbonitrile], the IC50 was below 100 nM.

On to `CC(C)N(Cc1nc2cccc(N3CC[C@@H](N(C)C)C3)n2c1C(N)=O)[C@H]1CCCc2cccnc21` [Example 51, 5-[(3R)-3-(Dimethylamino)-1-pyrrolidinyl]-2-({(1-methylethyl)[(8S)-5,6,7,8-tetrahydro-8-quinolinyl]amino}methyl)imidazo[1,2-a]pyridine-3-carboxamide], for which the IC50 was below 100 nM. Take `CN(C)[C@@H]1CCN(c2cccc3nc(CN(Cc4ccccc4)[C@H]4CCCc5cccnc54)c(C#N)n23)C1` [Example 53, 5-[(3R)-3-(Dimethylamino)-1-pyrrolidinyl]-2-({(phenylmethyl)[(8S)-5,6,7,8-tetrahydro-8-quinolinyl]amino}methyl)imidazo[1,2-a]pyridine-3-carbonitrile]: the IC50 is below 100 nM. With `CN(C)C1CCN(c2cccc3nc(CN(C)[C@H]4CCCc5cccnc54)c(C#N)n23)CC1` [Example 58, 5-[4-(dimethylamino)-1-piperidinyl]-2-({methyl[(8S)-5,6,7,8-tetrahydro-8-quinolinyl]amino}methyl)imidazo[1,2-a]pyridine-3-carbonitrile], the IC50 was below 100 nM. With `CN(C)C1CCN(c2cccc3nc(CN(C)[C@H]4CCCc5cccnc54)c(C(N)=O)n23)CC1` [Example 59], the IC50 is below 100 nM. With `CCN(Cc1nc2cccc(N3CCC(N(C)C)CC3)n2c1C#N)[C@H]1CCCc2cccnc21` [Example 62, 5-[4-(dimethylamino)-1-piperidinyl]-2-({ethyl[(8S)-5,6,7,8-tetrahydro-8-quinolinyl]amino}methyl)imidazo[1,2-a]pyridine-3-carbonitrile] the figure was below 100 nM; with `CCN(Cc1nc2cccc(N3CCC(N(C)C)CC3)n2c1C(N)=O)[C@H]1CCCc2cccnc21` [Example 63, 5-[4-(dimethylamino)-1-piperidinyl]-2-({ethyl[(8S)-5,6,7,8-tetrahydro-8-quinolinyl]amino}methyl)imidazo[1,2-a]pyridine-3-carboxamide], below 100 nM; with `CCCN(Cc1cn2c(N3CCC(N(C)C)CC3)cccc2n1)[C@H]1CCCc2cccnc21` [Example 64, (8S)—N-({5-[4-(dimethylamino)-1-piperidinyl]imidazo[1,2-a]pyridin-2-yl}methyl)-N-propyl-5,6,7,8-tetrahydro-8-quinolinamine], below 100 nM.

`CCCN(Cc1nc2cccc(N3CCC(N(C)C)CC3)n2c1C#N)[C@H]1CCCc2cccnc21` [Example 66, 5-[4-(dimethylamino)-1-piperidinyl]-2-({propyl[(8S)-5,6,7,8-tetrahydro-8-quinolinyl]amino}methyl)imidazo[1,2-a]pyridine-3-carbonitrile]: the IC50 is below 100 nM. `CCCN(Cc1nc2cccc(N3CCC(N(C)C)CC3)n2c1C(N)=O)[C@H]1CCCc2cccnc21` [Example 67, 5-[4-(dimethylamino)-1-piperidinyl]-2-({propyl[(8S)-5,6,7,8-tetrahydro-8-quinolinyl]amino}methyl)imidazo[1,2-a]pyridine-3-carboxamide]: the IC50 was below 100 nM.

In the case of `CC(C)N(Cc1nc2cccc(N3CCC(N(C)C)CC3)n2c1C#N)[C@H]1CCCc2cccnc21` [Example 70, 5-[4-(dimethylamino)-1-piperidinyl]-2-({(1-methylethyl)[(8S)-5,6,7,8-tetrahydro-8-quinolinyl]amino}methyl)imidazo[1,2-a]pyridine-3-carbonitrile], the IC50 was below 100 nM.

Consider `CC(C)N(Cc1nc2cccc(N3CCC(N(C)C)CC3)n2c1C(N)=O)[C@H]1CCCc2cccnc21` [Example 71, 5-[4-(dimethylamino)-1-piperidinyl]-2-({(1-methylethyl)[(8S)-5,6,7,8-tetrahydro-8-quinolinyl]amino}methyl)imidazo[1,2-a]pyridine-3-carboxamide], for which the IC50 was below 100 nM. `CN1CCN(c2cccc3nc(CN(C)[C@H]4CCCc5cccnc54)c(Cl)n23)CC1` [Example 72, (8S)—N-{[3-Chloro-5-(4-methyl-1-piperazinyl)imidazo[1,2-a]pyridin-2-yl]methyl}-N-methyl-5,6,7,8-tetrahydro-8-quinolinamine]: the IC50 is below 100 nM. In the case of `CCN1CCN(c2cccc3nc(CN(C)[C@H]4CCCc5cccnc54)c(Cl)n23)CC1` [Example 73, (8S)—N-{[3-Chloro-5-(4-ethyl-1-piperazinyl)imidazo[1,2-a]pyridin-2-yl]methyl}-N-methyl-5,6,7,8-tetrahydro-8-quinolinamine], the IC50 is below 100 nM. In the case of `CN(C)[C@@H]1CCN(c2cccc3nc(CN(C)[C@H]4CCCc5cccnc54)c(Cl)n23)C1` [Example 74, (8S)—N-({3-Chloro-5-[(3R)-3-(dimethylamino)-1-pyrrolidinyl]imidazo[1,2-a]pyridin-2-yl}methyl)-N-methyl-5,6,7,8-tetrahydro-8-quinolinamine], the IC50 is below 100 nM. Consider `CN(C)C1CCN(c2cccc3nc(CN(C)[C@H]4CCCc5cccnc54)c(Cl)n23)CC1` [Example 75, (8S)—N-({3-Chloro-5-[4-(dimethylamino)-1-piperidinyl]imidazo[1,2-a]pyridin-2-yl}methyl)-N-methyl-5,6,7,8-tetrahydro-8-quinolinamine], for which the IC50 was below 100 nM. With `CN1CCCN(c2cccc3nc(CN(C)[C@H]4CCCc5cccnc54)c(Cl)n23)CC1` [Example 76, (8S)—N-{[3-Chloro-5-(4-methylhexahydro-1H-1,4-diazepin-1-yl)imidazo[1,2-a]pyridin-2-yl]methyl}-N-methyl-5,6,7,8-tetrahydro-8-quinolinamine] the figure was below 100 nM; with `CN(C)CCN(C)c1cccc2nc(CN(C)[C@H]3CCCc4cccnc43)c(Cl)n12` [Example 77, N-[3-Chloro-2-({methyl[(8S)-5,6,7,8-tetrahydro-8-quinolinyl]amino}methyl)imidazo[1,2-a]pyridin-5-yl]-N,N′,N′-trimethyl-1,2-ethanediamine], below 100 nM. Under `C[C@H]1CN(c2cccc3nc(CN(C)[C@H]4CCCc5cccnc54)c(Cl)n23)CCN1` [Example 78, (8S)—N-({3-Chloro-5-[(3S)-3-methyl-1-piperazinyl]imidazo[1,2-a]pyridin-2-yl}methyl)-N-methyl-5,6,7,8-tetrahydro-8-quinolinamine] stands below 100 nM; under `C[C@H]1CN(c2cccc3nc(CN(C)[C@H]4CCCc5cccnc54)c(Cl)n23)CCN1C` [Example 79, (8S)—N-([3-Chloro-5-[(3S)-3,4-dimethyl-1-piperazinyl]imidazo[1,2-a]pyridin-2-yl]methyl)-N-methyl-5,6,7,8-tetrahydro-8-quinolinamine], below 100 nM.
